A short description of data set [1]: Hydrogelation and dynamic rheology of h9e in MEM. Conditions: for stable storage modulus: 37° C. The class given is physicochemical. How it is done:
Lyophilized peptide was added to 100 mM sodium bicarbonate and completely dissolved by magnetic stirring for 3 hours with a final peptide concentration of 10 mM. For hydrogelation, peptide solution was added into MEM with 10% FBS and the mixture was hand-shaken for about 10 seconds. The peptide hydrogel formed within 15 minutes at room temperature with final peptide concentrations of 1, 2, and 3 mM. The storage and loss moduli (G′ and G″, respectively) of h9e hydrogels were determined on a C-VOR 150 rheometer system (Malvern instruments, Malvern, Worcestershire WR141XZ, United Kingdom) with a 20-mm diameter parallel plate geometry and 500 μm gap size. To mimic cell physiological conditions, all rheological tests were performed at 37° C. unless otherwise specified. The peptide and MEM mixture was placed on the measuring system immediately after mixing for a gel-forming rate test. Single frequency (1 Hz) and steady shear strain (1%) were selected for a 1 hour test. To determine the hydrogel reassembly capability, the peptide and MEM mixture was incubated at room temperature overnight for hydrogelation, then transferred to a lower measuring plate for a 10 minute, single-frequency test (1 Hz, 1% strain) for stabilization. The hydrogel was broken using 1 Hz frequency and 500% shear strain for 1 minute. Resetting the instrument parameters took 1 minute, and the hydrogel moduli during the reassembly period were measured under 1 Hz frequency and 1% shear strain for 1 hour. The amplitude sweep test (strain from 1 to 500%, 1 Hz frequency) was conducted multiple times to determine hydrogel reassembly capability after each time it was destroyed. Four testing cycles were applied in this measurement and the hydrogel recovery time between every two cycles was 1, 5, and 10 minutes. Furthermore, to test the response to different environmental temperatures, the peptide hydrogel was measured under a temperature profile test with steady oscillatory frequency (1 Hz) and strain (1%). The temperature was adjusted from 4° C. to 50° C. for two testing cycles. For each cycle, the instrument's heating or cooling processes took 5 minutes, then another 5 minutes to arrive at the setting temperature (4° C. or 50° C.). To determine the G′ and G″ of hydrogel during cell isolation, 3 mM peptide hydrogel was diluted 15 times with MEM. After thorough mixing, the diluted solution was tested under 1 Hz frequency and 1% shear strain at 4° C. for 1 hour.

The subject of data set [2] is Male Wistar rats. Nature of the data set: In vivo hemostatic efficiency, cut rat tail model. The following applies: all percent concentrations of h9e peptide solution. The source says:
Similar to the method used by Mortazavi et al., in this study 30 rats were divided randomly into 5 groups of 6 animals each. […] Male Wistar rats were kept on AIN-93 diet with free access to water, under 12-h light-dark cycles, for one week. Before excising the tail, the rats were first anesthetized and maintained with 3% isoflurane until the eyelid closure reflex was lost and there was no reactive reflex in response to a toe pinch. In order to maintain an appropriate body temperature during anesthesia, a circulating water blanket was used at a temperature of 41-43° C. Following anesthesia, animals' tails were cut off at a thickness of 5 mm using a pair of mortuary scissors. The cut tail was immediately inserted into a small vial containing the appropriate treatment. The 1st group received topical saline solution (negative control) and the 2nd to 4th groups received topical h9e peptide solution at 1, 3, or 5 wt %, respectively. The 5th group received a topical application of a commercially available hemostatic agent as a positive control (Moore Medical CELOX* Hemostatic Granules). After treatment with above mentioned agents, the volume of blood lost was measured using a scaled test-tube. The bleeding time was measured using a stop watch. At the conclusion of the study, the rats were sacrificed using a CO2 chamber.

Data set [3] in a line: Rheology of h9e/BSA hydrogel formation (storage modulus G′). The class given is physicochemical. Conditions: for G′ after 2 hours of testing: 3 mM h9e. How it is done:
For albumin triggered hydrogel formation, 10 mM (1.74 wt %) peptide was first dissolved in 100 mM NaHCO3 solution. BSA and HSA were dissolved in water with 5 wt % concentration. The peptide solution and albumin solution were then mixed at different ratios for final mixtures of 1, 2, 3 mM h9e peptide with albumin from 0.1 to 5 wt %.
The storage (G′) and loss (G″) moduli of h9e hydrogels with different peptide/albumin ratios were measured on a rheometer system C-VOR 150 (Malvern instruments, Malvern, Worcestershire WR141XZ, United Kingdom) with a 20 mm diameter parallel plate test system. All rheological tests were carried out at 37° C. […]

The subject of data set [4] is HeLa cells. The data set can be described thus: HeLa cell viability (CCK-8) in 3D h9e hydrogel. Conditions: same amount of camptothecin. Type of data set: cell-based. How it is done:
Cell culture and drug efficacy/diffusion tests: HeLa cells were grown in the hydrogel in 3D. Aliquots of HeLa cells solution were added into […] hydrogel with DMEM containing 10% FBS with a final peptide concentration of 0, 0.25, 0.5 and 1 wt %. 100 μl of cell mixture solution (3×10^4 cells per well) was seeded into a 96-well culture plate (Becton Dickinson Labware, Franklin Lakes, N.J.) and placed in an incubator (Nuair, Playmouth, Minn.) in a humidified 5% CO2 atmosphere at 37° C. for about 30 min. After complete hydrogelation, 10 μl of DMEM containing 0, 50 uM, 100 uM, or 200 uM camptothecin was added on top of the hydrogel to obtain camptothecin concentrations of 0 μM, 3.125 μM, 6.25 μM, and 12.5 μM, respectively, upon total diffusion in the hydrogel. Then, 50 ul of DMEM was carefully added to the top of the hydrogel to prevent drying during long-term incubation. All measurements were made at least in triplicate, and the plates were incubated for 3 days. A CCK-8 assay was used to determine cell viability after each treatment. 10 μL of CCK solution was added to each well. After 4 h of incubation, the absorbance at 450 nm was collected on a microplate reader (mQuant, Bio-Tek) and corrected by subtracting the background signal from a wall containing only 160 ul DMEM containing 10% FBS. […]

As to “H-FLIVIGSIIGPGGDGPGGD-NH2 [h9e, FLIVIGSIIGPGGDGPGGD]”, the figures for the stable storage modulus entry in data set [1] (1 mM h9e in MEM), in data set [1] (2 mM h9e in MEM) and in data set [1] (3 mM h9e in MEM) were “around 100 Pa”, about 400 Pa and about 700 Pa, respectively. The gel strength recovered result was “about 73%” in data set [1] (1 mM hydrogel, waiting time 1 min); 83% in data set [1] (1 mM, after three shear-thinning cycles and 10 min waiting); about 76% in data set [1] (2 mM hydrogel, waiting time 1 min); 84% in data set [1] (2 mM, after three shear-thinning cycles and 10 min waiting); about 88% in data set [1] (3 mM hydrogel, waiting time 1 min); 100% in data set [1] (3 mM, after three shear-thinning cycles and 10 min waiting). In addition, in data set [1] (1, 2 and 3 mM h9e in MEM), the “time to reach self-supporting strength (close or above 100 Pa)” value was at most 15 min. Moreover, the “G′ after shear-thinning” value in data set [1] (1-3 mM hydrogels, 500% strain for 1 minute) is recorded as “lower than 0.2 Pa”. Besides, the “time to self-supporting hydrogel matrix” value in data set [1] (h9e solution added into MEM with 10% serum) is recorded as at most 1 min. Besides, the “G′ at 50° C. relative to 4° C.” value in data set [1] (temperature profile test, 1-3 mM hydrogels) is given as 2-3 times. In data set [2], the “control of hemorrhage versus sterile saline negative control” value is reported as “effective in controlling hemorrhage”. Besides, the hydrogel formation entry in data set [3] (1 mM peptide with 1 wt % BSA, 2 hour test) is “performed like a Newtonian liquid”. The “stable G′” value in data set [3] (3 mM h9e peptide solution mixed with 5% BSA, 37° C.) is “around 200 Pa”. In addition, in data set [3] (3 mM h9e solution without BSA, 30 min test), the “behaviour of peptide solution alone” value is given as “performed as Newtonian liquid”. In addition, the “G′ after 2 hours of testing” value in data set [3] (0.1 wt % BSA) is on record as “about 110 Pa”; in data set [3] (0.5 wt % BSA), “over 900 Pa”; in data set [3] (1 wt % BSA) it was 680 Pa; in data set [3] (5 wt % BSA), 200 Pa. The gel strength result in data set [3] (0.5% h9e peptide and 0.5% BSA, incubated at 37° C. for 30 min) is reported as “about 450 Pa”. Also, the “HeLa cell viability across h9e hydrogel concentrations” value in data set [4] was “cell viability was comparable”.

The values are drawn from patent publication US11135163B2, “Peptide hydrogel properties and its applications” (Kansas State University Research Foundation, priority 2014, dated 2021).
